Data set [1] concerns the target Xanthine dehydrogenase/oxidase (Homo sapiens, UniProt P47989). Nature of the data set: Inhibition of XOR (unknown origin) using xanthine as substrate measured for 10 mins by spectrophotometry.
The target in data set [2] is T1, Solute carrier family 22 member 12 (Homo sapiens, UniProt Q96S37).
T1 sequence (Q96S37 whole entry): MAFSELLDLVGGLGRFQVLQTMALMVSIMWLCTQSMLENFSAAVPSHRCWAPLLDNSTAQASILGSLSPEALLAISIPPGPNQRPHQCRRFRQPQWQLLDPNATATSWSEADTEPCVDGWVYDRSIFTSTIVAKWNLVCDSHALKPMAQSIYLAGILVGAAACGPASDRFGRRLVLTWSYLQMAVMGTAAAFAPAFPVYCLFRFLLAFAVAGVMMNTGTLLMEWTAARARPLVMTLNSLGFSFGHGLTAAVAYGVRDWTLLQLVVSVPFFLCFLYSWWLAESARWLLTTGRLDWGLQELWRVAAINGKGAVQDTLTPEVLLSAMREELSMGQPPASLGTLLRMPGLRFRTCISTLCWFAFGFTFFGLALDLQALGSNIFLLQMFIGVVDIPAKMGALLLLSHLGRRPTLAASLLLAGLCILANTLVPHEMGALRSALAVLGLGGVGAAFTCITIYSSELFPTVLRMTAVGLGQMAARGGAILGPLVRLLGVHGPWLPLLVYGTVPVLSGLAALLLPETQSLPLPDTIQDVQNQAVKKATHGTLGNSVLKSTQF
Briefly: Inhibition of human URAT1 expressed in HEK293T cells using 6-carboxylic fluorescein substrate by fluorescence assay. Format: cell-based.

Data set [3] addresses T1, Solute carrier family 22 member 12. Nature of the data set: Inhibition of human URAT1 expressed in HEK293T cells using 6-carboxylic fluorescein substrate at 1000 uM by fluorescence assay. Format: cell-based.
Data set [4] relates to Mus musculus. Nature of the data set: Hypouricemic effect in potassium oxonate/hypoxanthine-induced acute hyperuricemia ICR mouse model assessed as decrease in serum uric acid level measured after 1 hr drug administration. Format: functional, organism-based.
For data set [5], the system named is Mus musculus. Briefly: Hypouricemic effect in potassium oxonate/hypoxanthine-induced acute hyperuricemia ICR mouse model assessed as decrease in serum uric acid level at 5 mg/kg, gavage measured after 3 to 9 hrs of drug administration. Format: functional, organism-based. As to conditions: time 3-9 hrs.
A further data set has as its target T2, URAT1 (SLC22A12) (Homo sapiens, UniProt Q96S37).
T2 sequence (Q96S37 whole entry): T1 sequence (Q96S37 whole entry)
Briefly: Inhibition of human URAT1 expressed in HEK293T cells using 6-carboxylic fluorescein substrate at 100 uM by fluorescence assay relative to control. To be noted: HEK293T cells expressing human URAT1, probe 6-carboxylic fluorescein. Format: cell-based.

The values that follow come from ChEMBL document CHEMBL5512661, “Design, synthesis, and biological evaluation of 3-phenyl substituted pyridine derivatives as potential dual inhibitors of XOR and URAT1” (Eur J Med Chem, 2024).

The source made the active and inactive calls. The rule behind the calls is not given here. Some results are limits rather than exact numbers.

Chain of Xanthine dehydrogenase/oxidase (P47989 whole entry): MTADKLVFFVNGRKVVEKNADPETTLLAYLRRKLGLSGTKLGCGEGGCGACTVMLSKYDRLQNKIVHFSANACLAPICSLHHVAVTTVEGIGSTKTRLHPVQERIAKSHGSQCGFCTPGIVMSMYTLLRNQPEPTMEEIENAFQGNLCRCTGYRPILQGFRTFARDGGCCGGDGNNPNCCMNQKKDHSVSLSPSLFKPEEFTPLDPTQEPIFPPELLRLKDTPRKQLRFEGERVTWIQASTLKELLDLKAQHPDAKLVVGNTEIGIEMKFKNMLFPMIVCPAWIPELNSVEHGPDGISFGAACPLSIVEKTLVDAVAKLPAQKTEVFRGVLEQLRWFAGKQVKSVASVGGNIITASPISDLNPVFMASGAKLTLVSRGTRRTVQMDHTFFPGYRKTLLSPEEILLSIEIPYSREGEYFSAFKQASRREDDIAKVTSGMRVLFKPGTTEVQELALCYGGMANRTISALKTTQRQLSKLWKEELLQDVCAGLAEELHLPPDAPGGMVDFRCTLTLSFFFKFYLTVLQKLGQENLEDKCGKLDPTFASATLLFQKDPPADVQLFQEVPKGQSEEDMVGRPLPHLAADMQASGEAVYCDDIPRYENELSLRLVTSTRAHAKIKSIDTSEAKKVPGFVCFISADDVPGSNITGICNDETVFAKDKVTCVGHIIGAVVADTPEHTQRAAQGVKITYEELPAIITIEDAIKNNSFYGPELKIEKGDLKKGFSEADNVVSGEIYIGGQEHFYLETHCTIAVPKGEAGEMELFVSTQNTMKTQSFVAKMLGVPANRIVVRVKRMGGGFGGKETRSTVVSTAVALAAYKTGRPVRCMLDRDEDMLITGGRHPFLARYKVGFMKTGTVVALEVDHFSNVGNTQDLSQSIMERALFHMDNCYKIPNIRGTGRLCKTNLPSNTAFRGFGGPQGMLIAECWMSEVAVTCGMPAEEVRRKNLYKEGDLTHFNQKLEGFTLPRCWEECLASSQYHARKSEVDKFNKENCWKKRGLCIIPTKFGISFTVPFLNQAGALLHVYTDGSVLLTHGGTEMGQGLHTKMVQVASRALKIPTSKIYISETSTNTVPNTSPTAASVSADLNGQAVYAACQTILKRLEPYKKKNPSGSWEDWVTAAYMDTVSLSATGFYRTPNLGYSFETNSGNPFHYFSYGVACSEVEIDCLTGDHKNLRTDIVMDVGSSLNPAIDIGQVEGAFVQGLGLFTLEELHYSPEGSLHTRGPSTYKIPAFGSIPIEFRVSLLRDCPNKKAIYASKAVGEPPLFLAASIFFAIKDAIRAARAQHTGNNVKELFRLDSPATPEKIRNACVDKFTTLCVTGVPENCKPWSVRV

For `CC(C)NC(=O)c1cncc(-c2ccc(Cl)c(C(=O)O)c2)c1`, the IC50 in data set [1] is above 100 µM; in data set [2] it was above 1000 µM.

Turning to `CC(C)NC(=O)c1cncc(-c2ccc(C#N)cc2)c1`, the half-inhibitory concentration (IC50) in data set [1] was 75.4 µM. Also, the “inhibition (INH)” value in data set [3] was “Not Active”.

Take `CC(C)NC(=O)c1cncc(-c2ccc(F)c(C(=O)O)c2)c1`: the IC50 in data set [1] was above 100 µM; in data set [2], above 1000 µM.

In turn, `CC(C)NC(=O)c1cncc(-c2ccc(C(=O)O)cc2)c1` had a half-inhibitory concentration (IC50) in data set [1] of 0.59 µM. Moreover, the “inhibition (INH)” value in data set [3] is given as “Not Active”.

The compound `Cc1nc(-c2ccc(OCC(C)C)c(C#N)c2)sc1C(=O)O` [FEBUXOSTAT] registered an IC50 in data set [1] of 0.008 µM.

In the case of `O=C(O)c1ccc(-c2cncc(Nc3ccccc3)c2)cc1O`, the IC50 worked out at 0.026 µM in data set [1] and 33.4 µM in data set [2].

As to `CC(C)NC(=O)c1cncc(-c2ccc(C(=O)O)c(O)c2)c1`, the IC50 in data set [1] is 0.037 µM; in data set [2], 547 µM.

Take `Cc1ccc(Nc2cncc(-c3ccc(C(=O)O)c(O)c3)c2)cc1C`: the half-inhibitory concentration (IC50) was 0.021 µM in data set [1] and 53.6 µM in data set [2].

Regarding `Cc1ccc(Nc2cncc(-c3ccc(C(=O)O)c(O)c3)c2)cc1`, the half-maximal inhibitory concentration (IC50) in data set [1] amounted to 0.004 µM; in data set [2], 43.6 µM.

For `O=C(O)c1ccc(-c2cncc(Nc3cccc(Cl)c3)c2)cc1O`, the concentration for half-maximal inhibition (IC50) came to 0.006 µM in data set [1] and 12.9 µM in data set [2].

`Cc1ccc(Nc2cncc(-c3ccc(C(=O)O)c(O)c3)c2)cc1F`: the values for the IC50 in data set [1] and in data set [2] were 0.03 µM and 30.6 µM, respectively.

For `O=C(O)c1ccc(-c2cncc(Nc3ccc(Cl)c(Cl)c3)c2)cc1O`, the IC50 in data set [1] was 0.019 µM; in data set [2], 80.7 µM.

On to `CC(C)(C)c1ccc(Oc2cncc(-c3ccc(C(=O)O)c(O)c3)c2)cc1`, for which the IC50 in data set [1] came to 0.121 µM; in data set [2], 124 µM. Besides, the outcome in the data set with Mus musculus [4] was inactive. In the data set with Mus musculus [5], the outcome was Active.

Regarding `CC(C)(C)c1ccc(Nc2cncc(-c3ccc(C(=O)O)c(O)c3)c2)cc1`, the IC50 in data set [1] turned out to be 0.041 µM; in data set [2], 70.3 µM.

As to `O=C(O)c1ccc(-c2cncc(Nc3ccc(Cl)cc3)c2)cc1O`, the values for the IC50 in data set [1] and in data set [2] were 0.013 µM and 57.8 µM, respectively.

Regarding `O=C(O)c1ccc(-c2cncc(Nc3ccc(F)c(Cl)c3)c2)cc1O`, the values for the IC50 in data set [1] and in data set [2] were 0.016 µM and 36.8 µM, respectively.

In the case of `Cc1ccc(Oc2cncc(-c3ccc(C(=O)O)c(O)c3)c2)cc1`, the IC50 in data set [1] came out at 0.035 µM; in data set [2] it was 106 µM.

Turning to `Cc1cccc(Oc2cncc(-c3ccc(C(=O)O)c(O)c3)c2)c1`, the IC50 in data set [1] stood at 0.026 µM; in data set [2] it was 86.2 µM.

Regarding `O=C(O)c1ccc(-c2cncc(Oc3ccc(F)cc3)c2)cc1O`, the results for the IC50 in data set [1] and in data set [2] were 0.04 µM and 134 µM, respectively.

Regarding `O=C(O)c1ccc(-c2cncc(Nc3ccc(F)cc3)c2)cc1O`, the IC50 was 0.015 µM in data set [1] and 91.2 µM in data set [2].

For the compound `Cc1ccc(Nc2cncc(-c3ccc(C(=O)O)c(O)c3)c2)cc1Cl`, the IC50 in data set [1] turned out to be 0.043 µM; in data set [2], 51.7 µM.

With `O=C(O)c1ccc(-c2cncc(Oc3ccccc3)c2)cc1O`, the IC50 in data set [1] came out at 0.036 µM; in data set [2] it was 86.7 µM. For the same compound, in the data set on Mus musculus [4], the result was inactive. The outcome in the data set with Mus musculus [5] was Active.

The compound `Cc1nc(C)c(-c2csc(Nc3ccc(O)c(C(=O)O)c3)n2)s1` yielded an IC50 in data set [1] of 3.95 µM. The same compound came in with an inhibition at 100 µM on URAT1 (SLC22A12) of 35.5%.

Regarding `COc1ccc(Nc2cncc(-c3ccc(C(=O)O)c(O)c3)c2)cc1`, the IC50 in data set [1] turned out to be 0.016 µM; in data set [2], 58.3 µM.

As for `O=C(O)c1ccc(-c2cncc(Oc3ccc(Cl)cc3)c2)cc1O`, the 50% inhibitory concentration (IC50) was 0.038 µM in data set [1] and 64.6 µM in data set [2].

As to `CCc1oc2ccccc2c1C(=O)c1cc(Br)c(O)c(Br)c1`, the result in the data set on Mus musculus [5] was Active.

`CCc1ccc(Nc2cncc(-c3ccc(C(=O)O)c(O)c3)c2)cc1`: the IC50 in data set [1] came out at 0.026 µM; in data set [2], 31.5 µM.

Take `Cc1cccc(Nc2cncc(-c3ccc(C(=O)O)c(O)c3)c2)c1`: the figures for the IC50 in data set [1] and in data set [2] were 0.023 µM and 56.9 µM, respectively.

Regarding `CC(=O)c1ccc(-c2cncc(C(=O)NC(C)C)c2)cc1`, 6.4 µM corresponded to half-maximal inhibition in data set [1] (IC50). The inhibition at 100 µM at URAT1 (SLC22A12) was 15.6%.

As to `CC(C)NC(=O)c1cncc(-c2ccc(O)c(C(=O)O)c2)c1`, the IC50 was found to be 80 µM in data set [1] and 221 µM in data set [2].

For `O=C(O)c1ccc(-c2cncc(Oc3cccc(Cl)c3)c2)cc1O`, the values for the IC50 in data set [1] and in data set [2] were 0.045 µM and 55.9 µM, respectively.

In turn, `CC(C)NC(=O)c1cncc(-c2cccc(C(=O)O)c2)c1` yielded an IC50 in data set [1] above 100 µM. Moreover, the “inhibition (INH)” value in data set [3] is recorded as “Not Active”.

For orientation: IC50 means the concentration at which inhibition is half-maximal. High values mean weaker potency in that assay, low ones greater potency in that assay. The term inhibition denotes the percentage by which the read-out fell short of the control. A higher inhibition goes with a response far below the control.
